Data as given in ChEMBL document CHEMBL1629426, “7-Nor-ergosterolide, a pentalactone-containing norsteroid and related steroids from the marine-derived endophytic Aspergillus ochraceus EN-31” (J Nat Prod, 2010).
Values after ≈ are worked out from the molar mass of the structure shown. Active and inactive are the calls of the source. No cut-off for these calls is given here.

Columns and labels:
[1] = system: Escherichia coli; assay: Antimicrobial activity against Escherichia coli by agar diffusion method; format: functional, organism-based
[2] = system: Staphylococcus aureus; assay: Antimicrobial activity against Staphylococcus aureus by agar diffusion method; format: functional, organism-based
[3] = system: Aspergillus niger; assay: Antimicrobial activity against Aspergillus niger by agar diffusion method; format: functional, organism-based
[4] = system: SMMC-7721; assay: Cytotoxicity against human SMMC7721 cells by colorimetric assay; format: functional, cell-based
[5] = system: SW1990; assay: Cytotoxicity against human SW1990 cells by colorimetric assay; format: functional, cell-based
[6] = system: NCI-H460; assay: Cytotoxicity against human NCI-H460 cells by colorimetric assay; format: functional, cell-based

Structure (SMILES) | Activity [1] | Activity [2] | Activity [3] | IC50 [4] | IC50 [5] | IC50 [6]
C=C(CC[C@@H](C)[C@H]1CC[C@H]2C3=C(CC[C@]12C)[C@@]1(C)CC[C@H](O)C[C@@H]1CC3=O)C(C)C | inactive | inactive | inactive | – | – | –
C=C(CC[C@@H](C)[C@H]1CC[C@H]2C3=C([C@H](O)C[C@]12C)[C@@]1(C)CC[C@H](O)C[C@@H]1CC3=O)C(C)C | inactive | inactive | inactive | 28 µg/mL (≈ 65.3 µM) | – | –
C=C(CC[C@@H](C)[C@H]1CC[C@H]2C3=C(CC[C@]12C)[C@@]1(C)CC[C@H](O)C[C@@H]1C(=O)O3)C(C)C | inactive | inactive | inactive | 7 µg/mL (≈ 16.9 µM) | 28 µg/mL (≈ 67.5 µM) | 5 µg/mL (≈ 12.1 µM)
